Source: US9260710B2, “Photocleavable linker” (City of Hope, priority 2012, dated 2016)

Legend:
[1] = test system: GFP-LC8 trap transfected Cos1/Cos7 cells; test: Organelle dispersion and microtubule array in cells expressing the LC8 trap; assay type: cell-based; conditions: expression of the trap alone, no AP20187
Description: In vivo effect of Dynein LC and IC Traps. As tests for LC function, we evaluated the effects of the traps on early endosome, lysosome, and Golgi distribution, as well as mitotic progression. First, we fused green fluorescent protein (GFP) to the N-terminus of both FKBP-traps to identify transfected cells. Next, we transfected Cos1, Cos7, or HeLa cells with either trap or a GFP-FKBP control and labeled endosomes, lysosomes and Golgi with EEA1, LAMP2 and GM130 markers, respectively (FIGS. 12A-12C). […] The percentage of cells expressing the GFPLC8 or GFP-TcTex1 trap with dispersed endosomes was 14.7±1.5% and 13.3±1.5%, respectively, as compared to 11.7±3.5% and 10.3±3.5% for non-transfected cells and cells that expressed a GFP-FKBP control, respectively. […] After 8 h of treatment with AP20187, we observed greater than 50% dispersion of the three organelle types for each trap.
To ensure the AP20187 concentration was not limiting, we followed the LC8-trap-induced dispersion of lysosomes as a function of AP20187 concentration after 8 h. […] For the TcTex1-trap, we observed efficient endosome, lysosome and Golgi dispersion at AP20187 concentrations of 1 μM or greater.
Kinetic Analysis Separates Dynein Functions. A major purpose for developing these traps is to provide immediate inhibition of protein function and follow the cellular response from this perturbation to gain new insight. Thus, we monitored the fraction of cells with dispersed organelles as a function of time. After induction of dimerization by AP20187, effects on both early endosome and lysosome distribution were detectable at 10 min, and leveled off at ˜2 h (FIGS. 14A-14B). […] The most rapid effect was observed on lysosomes in cells expressing the LC8 trap. In striking contrast, Golgi dispersal using either trap occurred over a much longer time-course, requiring 8 h after induction of dimerization to reach similar levels of dispersion as for endosomes and lysosomes. Twenty-four hours after addition of AP20187, the percentage of cells with dispersed Golgi reached levels greater than 85%.

[2] = target: T1, LC8 (Homo sapiens, UniProt P63167); test: Defective mitotic spindle morphology; assay type: cell-based; conditions: transfected cells
T1 construct: we monitored the distribution of Golgi in cells subjected to LC8 RNAi; endogenous in cells
T1 sequence (P63167 whole entry): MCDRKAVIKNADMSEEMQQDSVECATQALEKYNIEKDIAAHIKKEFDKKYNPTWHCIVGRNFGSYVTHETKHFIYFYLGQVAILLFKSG
Protocol: As a test for effects on cytoplasmic dynein functions that are distinct from vesicular transport, we monitored mitotic behavior in cells expressing either the LC8- or TcTex1-traps. We observed little effect on either mitotic index or the fraction of mitotic cells at discrete mitotic stages with either trap (data not shown). […] Finally, similar studies were carried out using the IC trap. As before, we observed little or no change in the dispersion of endosomes and Golgi apparatus before AP20187 treatment. Induction of dimerization through the addition of AP20187 (1 μM) produced immediate changes in both organelles. After 4 h, 81+4% of cells contained dispersed endosomes and 68+3% of cells contained dispersed Golgi. […] The precise reason for this difference is not clear; however, currently, we attribute this to a change in the cytoskeleton, but this must still be verified. We are also in the process of measuring the effect of sequestering the dynein IC on mitotic behavior.

[3] = test system: TcTex1; test: Trap specificity by native PAGE, TcTex1; assay type: binding; conditions: with or without AP20187 treatment
Description: In addition, there is no evidence that LC8 can bind proteins bearing a TcTex1 sequence or vice versa (e.g., LC8 binds to BimEL, Pak1, nNOS, etc.; TcTex1 binds to Doc2α, PTHR receptor, etc.50).

GFPLC8: green fluorescent protein fused to the N-terminus of the FKBP LC8-trap
percentage of cells with dispersed endosomes [1]: 14.7±1.5%

LC8-trap: LC8 binding region of the dynein IC (residues 125-137, rat IC2C) fused to the C-terminus of FKBP
defective mitotic spindle morphology [2]: 20+2% | binding to TcTex1 [3]: does not bind
